Bridge positions count the residues as written; N and C are the ends. Square brackets hold non-standard residues; d marks the D form. Ends that are not written are not given here. cellulose = not defined here; βAla = NCCC(=O)O
Columns and labels:
[1] = system: immunoglobulins from human plasma; test: Affinity chromatography of human plasma on peptide-sepharose matrices, binding capacity for immunoglobulins; settings: 6 volume fractions per column volume, 80 cm/h, elution pH 2.8
Procedure: For immobilization to a solid phase, the peptides were dissolved in coupling buffer (30% (v/v) acetonitrile, 0.5 M NaCl, 0.1 M NaHCO3, pH 8.3) to a concentration of 1 mg/ml and mixed with washed and CNBr-preactivated sepharose 4B at a volume ratio of 10:1. After completion of the coupling reaction, the peptide. matrices were washed with coupling buffer, and the excess CNBr groups were inactivated by incubation of the matrix in Tris buffer (100 mM Tris-HCl, 500 mM NaCl, pH 8.0).
The peptide loadings of the matrices were determined by photometry (A280 nm) by establishing the difference between the peptide mass employed before coupling and the non-immobilized peptide mass after coupling.
The peptide matrices were tested by means of affinity chromatography for their binding capacity and binding specificity for immunoglobulins with human plasma as a sample. Thus, 6 volume fractions of human plasma as the sample was passed through 1 column volume fraction of peptide matrix at a linear flow rate of 80 cm/h.
Prior to sample application, the affinity-chromatographic column was equilibrated with PBS, pH 7.2. […]
The determination of the concentration of the eluted protein was effected by photometric measurement of the adsorption at 280 nm. The immunoglobulin concentration was calculated therefrom with ε280 nm=1.35 cm^2/mg for IgG.

serum albumin = test: Cellulose-immobilized 13-mer peptide variants incubated with serum albumin (negative control), anti-human IgG-AP detection; assay type: binding; parameters: key: No binding of immunoglobulin for the defined peptide variant, detection negative: 0; Binding of immunoglobulin for the defined peptide variant, detection positive: +; settings: blocking buffer without addition, 3 h room temperature
How it was run: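 Peptides on cellulose via a (βA)(βA) spacer were blocked in T-TBS (pH 8.0) with 5% saccharose and 4% BSA, then exposed for 3 h at room temperature to IgG-Fc (1 μg/ml), serum diluted 1:10,000, or blocking buffer alone. Bound IgG was detected with AP-anti-human IgG (1.2 μg/ml) and NBT/BCIP colour development.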

[2] = system: immunoglobulins in human plasma; test: Cellulose-immobilized 13-mer peptide variants incubated with human plasma, anti-human IgG-AP detection; assay type: binding; parameters: key: No binding of immunoglobulin for the defined peptide variant, detection negative: 0; Binding of immunoglobulin for the defined peptide variant, detection positive: +; settings: human plasma as sample, diluted 1:10,000 in blocking buffer, 3 h room temperature
How it was run: (§1)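 SPOT-type 13-mer peptides on cellulose with a (βA)(βA) spacer, blocked in 5% saccharose/4% BSA in T-TBS pH 8.0. Incubated 3 h at RT with human IgG-Fc (1 μg/ml) or human serum/plasma (1:10,000), or with blocking buffer alone as the albumin specificity control. Bound IgG detected with AP-anti-human IgG (1.2 μg/ml) and NBT/BCIP colorimetric development at pH 9.5.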

human IgG-Fc = test: Cellulose-immobilized 13-mer peptide variants incubated with human IgG-Fc, anti-human IgG-AP detection; assay type: binding; parameters: key: No binding of immunoglobulin for the defined peptide variant, detection negative: 0; Binding of immunoglobulin for the defined peptide variant, detection positive: +; settings: IgG-Fc 1 μg/ml in blocking buffer, 3 h room temperature
How it was run: as §1

| Rel. capacity: mg of bound protein/mg of peptide matrix loading [1] | Volume capacity: mg of bound protein/ml of peptide matrix [1] | Result for incubation with serum albumin (immunoglobulin binding detection) (serum albumin) | Result for incubation with human plasma (immunoglobulin binding detection) [2] | Result for incubation with human IgG-Fc (immunoglobulin binding detection) (human IgG-Fc) | Substance |
| --- | --- | --- | --- | --- | --- |
| – | – | 0 | 0 | 0 | 05Y: cellulose-bound 13-mer variant DCAWYLGELVWCT-(βA)(βA) (DCAWYLGELVWCT[βAla][βAla]; disulfide 2-12 (inferred); not fully specified (N-terminus); printed as DCAWYLGELVWCT-(βA)(βA); also: cellulose-bound) |
| – | – | 0 | 0 | 0 | 03V: cellulose-bound 13-mer variant DCVWHLGELVWCT-(βA)(βA) (DCVWHLGELVWCT-{βAla-βAla-cellulose}; disulfide 2-12 (inferred); reading uncertain; also: printed as DCVWHLGELVWCT-(βA)(βA)) |
| – | – | 0 | 0 | 0 | 11R: cellulose-bound 13-mer variant DCAWHLGELVRCT-(βA)(βA) |

More lines, now with the values behind:

| Substance | Rel. capacity: mg of bound protein/mg of peptide matrix loading [1] | Volume capacity: mg of bound protein/ml of peptide matrix [1] | Result for incubation with serum albumin (immunoglobulin binding detection) (serum albumin) | Result for incubation with human plasma (immunoglobulin binding detection) [2] | Result for incubation with human IgG-Fc (immunoglobulin binding detection) (human IgG-Fc) |
| --- | --- | --- | --- | --- | --- |
| acetyl-D-S-A-W-H-L-G-E-L-V-W-C-T-((βA)(βA)K) (Ac-DSAWHLGELVWCT[βAla][βAla]K; also: immobilized on sepharose 4B) [Peptide matrix A1] | 0.53 mg/mg | 4.70 mg/mL | – | – | – |
| 02K: cellulose-bound 13-mer variant DKAWHLGELVWCT-(βA)(βA) (DKAWHLGELVWCT[βAla][βAla]; not fully specified; printed as DKAWHLGELVWCT-(βA)(βA); also: cellulose-bound) | – | – | 0 | 0 | 0 |

— US7205382B2, “Peptides, the production and use thereof for binding immunoglobulins” (Fresenius Medical Care Affina GmbH, priority 2000, dated 2007)
